Patent publication US6897227B2, “Prodrugs of proton pump inhibitors” (Winston Pharmaceuticals, Inc., priority 2002, dated 2005)

Columns and labels:
[1] = Aqueous solubility (water / distilled water); format: physicochemical; details: free carboxylic acids
Excerpt: A further significant advantage of the proton pump inhibitor prodrugs of the present invention relative to the proton pump inhibitor prodrugs disclosed in U.S. Pat. No. 6,093,734, 6,559,167 and PCT Publication WO 00109498 and to all other prior art is their increased solubility.

[2] = Solubility in phosphate buffered saline buffer of pH 7.4 at 37° C.; format: physicochemical; details: aqueous buffer, sodium salts, phosphate buffered saline buffer pH 7.4, read-out: Solubility at 37° C. Conc.
Experimental: The solubility of the sodium salts of certain exemplary compounds of the present invention in a phosphate buffered saline buffer of pH 7.4 (50 mM sodium phosphate, 10 mM KCl, 0.1 M NaCl) and also in a more acidic Britton Robinson buffer of pH 3 (40 mM acetic acid, 40 mM phosphoric acid, 40 mM boric acid, 36 mM NaOH, and 19.6 mg/ml KCl) was also evaluated. […] The tested compounds were much less soluble little in the Britton Robinson buffer of pH 3, but still more soluble than the prior art compounds (a) through (f). This is understandable in view of the fact that in the buffer of pH 7.4 the compounds of the invention form a sodium salt, whereas in the buffer of pH 3 the compounds are less soluble free carboxylic acids. Thus, a solution of a sodium or other pharmaceutically acceptable salt of the compounds of the invention, or stated in an other way the compounds of the invention at pH 7 or above are highly soluble and therefore suitable for administration by intravenous injection.

[3] = Stability in plasma at 37° C. (gradient HPLC-UV), rat plasma; format: in vitro ADME
Experimental: Exemplary test compounds (prodrugs) of the invention were incubated in plasma at 37° C., and the concentration of the compounds and also of the corresponding proton pump inhibitor compounds (PPI) were determined by a gradient HPLC-UV method. Although the half-lives of test compounds in plasma varies depending on their structure, nevertheless it is apparent that in plasma the compounds of the invention are converted into the corresponding proton pump inhibitor at a rate faster than the hydrolysis rate of the compound at neutral or near neutral pH.

[4] = test system: histamine and carbachol-stimulated gastric acid secretion; assay: Inhibition of gastric acid secretion of the conscious male rat, oral administration; format: in vivo, rat (Sprague-Dawley); details: sodium salt
Experimental: Male rats (the Sprague-Dawley strain) were used in this experiment. OMEPRAZOLE sodium salt or LANSOPRAZOLE sodium salt (20 mg) was suspended in 10 ml of 0.1 N NaHCO3. 40 mg of each of the sodium salts of Compound 1, Compound 2, Compound 3, Compound 4, Compound 6 Compound 9, Compound 12, mixture (1:1) of Compound 16 and 17, mixture (1:1) of Compound 18 and 19, mixture (1:1) of Compound 20 and 21, mixture (1:1) of Compound 22 and 23, Compound 27, mixture (1:1) of Compound 34 and 35, and Compound 36 were dissolved in 10 ml of 50 mM sodium phosphate buffer, pH 7.4. The doses administered to the rats were as follows (μmole per kg body weight of the rat): OMEPRAZOLE (10 μmole/kg), LANSOPRAZOLE (10 μmole/kg), Compound 120 μmole/kg, Compound 2 40 μmole/kg, Compound 320 μmole/kg, Compound 420 μmole/kg, Compound 620 μmole/kg, Compound 940 μmole/kg, Compound 1240 μmole/kg, mixture (1:1) of Compound 16 and 17 40 μmole/kg, mixture (1:1) of Compound 18 and 19 40 μmole/kg, mixture (1:1) of Compound 20 and 21 40 μmole/kg, mixture (1:1) of Compound 22 and 23 40 μmole/kg, Compound 27 40 μmole/kg, mixture (1:1) of Compound 34 and 35 40 μmole/kg, and Compound 3640 μmole/kg. These drug solutions were orally administered.
(§1) 3 hours after administration the abdomen of the rat was incised and the pylorus was ligated under light ether anethesia. Histamine (30 mg/kg) and carbachol (30 μg/kg) were subcutaneously injected for acid stimulation. Immediately the abdomen was closed. Two hours later, the esophagus was ligated and the stomach was removed. The gastric juice was collected and acid output was quantified by titration using 0.1 N NaOH solution. As a control experiment, 1 ml of 50 mM phosphate buffer (pH 7.4) solution was orally administrated without any prodrug or proton pump inhibitory drug. Acid output was quantified by same method as described above, showing maximum histamine and carbachol-stimulated gastric acid secretion. Percentage inhibition was calculated from the fractional responses elicited by the test compound and a control experiment.

gastric acid secretion = assay: Inhibition of gastric acid secretion in rat, intravenous administration; format: in vivo; details: 5 μmole/kg
Experimental: as §1
Inhibition of gastric acid secretion after intravenous administration of compounds of the invention was also examined. Lansoprazole sodium salt (20 mg) was dissolved in 40% hydroxypropyl-beta-cyclodextrin. The compounds of the invention used in this experiment were dissolved in phosphate buffered saline solution of pH 7.4. Each compound was injected intravenously at a dose of 5 μmole/kg or 10 μmole/kg (μmole per kg body weight of rat) as indicated in Table 4 below. Between 2 to 4 hours after injection gastric juice was collected, and the percentage of inhibition was determined as described above.

[5] = Stability in Britton Robinson buffers (hydrolysis of prodrug to PPI, HPLC); details: Britton Robinson buffer, pH 7
Experimental: (§2) The stability of Compounds 1, 2, 3, 4 and 5 of the invention in aqueous solution (0.1 mg/mL) was investigated in Britton Robinson buffers of pH 3, pH 7, and pH 9, respectively. A solution of 0.1 mg/mL concentration of each compound in each buffer was prepared and the solutions were stored at 37° C. for 1 h and then the concentrations of test compounds were determined by HPLC.

[6] = buffer
Experimental: as §2

Structure (SMILES)	solubility [1] [mg/mL]	solubility [2] [mg/mL]	half-life [3] [min]	inhibition in vivo at 40 µmol/kg ([4]; 40 μmole/kg, read-out: % inhibition of gastric acid secretion between 3-5 hours after administration) [%]	% inhibition of gastric acid secretion between 2-4 hours after i.v. administration (gastric acid secretion) [%]	half-life at 0.1 mg/mL [5] [h]	% inhibition of gastric acid secretion between 3-5 hours after administration ([4]; 20 μmole/kg) [%]	Half-life of hydrolysis at pH 7 of the prodrug to the corresponding proton pump inhibitory drug [6]
Cc1c(OCC(F)(F)F)ccnc1C[S+]([O-])c1nc2ccccc2n1S(=O)(=O)c1ccc(OCC(=O)[O-])cc1.[Na+] (centres unmarked) [Compound 2, (4-{2-[3-Methyl-4-(2,2,2-trifluoro-ethoxy)-pyridin-2-ylmethanesulfinyl]-benzimidazole-1-sulfonyl}-phenoxy)acetic acid sodium salt]	> 0.1	> 50	18	64.2 ± 11.3	63.1 ± 31.7	> 50		
CCC(Oc1ccc(S(=O)(=O)n2c([S+]([O-])Cc3nccc(OCC(F)(F)F)c3C)nc3ccccc32)cc1)C(=O)O (centres unmarked) [Compound 4, 2-(4-{2-[3-Methyl-4-(2,2,2-trifluoro-ethoxy)-pyridin-2-ylmethanesulfinyl]-benzimidazole-1-sulfonyl}phenoxy)butric acid]							60.9 ± 25.5	over 50 hours
